Source: ChEMBL document CHEMBL1139355, “Selectively targeting T- and B-cell lymphomas: a benzothiazole antagonist of alpha4beta1 integrin” (J Med Chem, 2009)

Each compound was assayed against Integrin alpha-4/beta-1 (Homo sapiens, UniProt P05556+P13612) (assay: Inhibition of human integrin alpha-4-beta-1-mediated MOLT4 cell adhesion to biotin-conjugated CS-1 peptide).
Sequence of Integrin alpha-4/beta-1 (P05556 whole entry): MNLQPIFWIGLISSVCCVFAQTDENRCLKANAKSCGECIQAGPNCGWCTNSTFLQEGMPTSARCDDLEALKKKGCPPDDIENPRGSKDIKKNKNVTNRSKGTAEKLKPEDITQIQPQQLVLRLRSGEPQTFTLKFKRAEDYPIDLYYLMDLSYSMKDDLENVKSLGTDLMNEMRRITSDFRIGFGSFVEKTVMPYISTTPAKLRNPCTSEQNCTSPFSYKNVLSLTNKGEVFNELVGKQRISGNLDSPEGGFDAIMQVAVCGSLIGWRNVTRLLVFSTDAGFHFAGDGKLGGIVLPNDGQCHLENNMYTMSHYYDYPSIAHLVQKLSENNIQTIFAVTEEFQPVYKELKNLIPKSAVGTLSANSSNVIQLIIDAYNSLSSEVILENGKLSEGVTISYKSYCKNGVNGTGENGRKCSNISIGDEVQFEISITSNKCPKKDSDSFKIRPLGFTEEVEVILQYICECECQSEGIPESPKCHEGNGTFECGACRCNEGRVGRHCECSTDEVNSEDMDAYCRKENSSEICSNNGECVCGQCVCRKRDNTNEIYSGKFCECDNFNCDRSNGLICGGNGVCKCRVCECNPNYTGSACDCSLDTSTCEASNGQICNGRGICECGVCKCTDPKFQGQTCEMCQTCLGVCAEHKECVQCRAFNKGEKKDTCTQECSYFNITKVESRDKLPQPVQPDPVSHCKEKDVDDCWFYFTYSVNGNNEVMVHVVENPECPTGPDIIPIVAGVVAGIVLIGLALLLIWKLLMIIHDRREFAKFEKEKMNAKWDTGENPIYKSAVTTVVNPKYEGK
Sequence of Integrin alpha-4/beta-1 (P13612 whole entry): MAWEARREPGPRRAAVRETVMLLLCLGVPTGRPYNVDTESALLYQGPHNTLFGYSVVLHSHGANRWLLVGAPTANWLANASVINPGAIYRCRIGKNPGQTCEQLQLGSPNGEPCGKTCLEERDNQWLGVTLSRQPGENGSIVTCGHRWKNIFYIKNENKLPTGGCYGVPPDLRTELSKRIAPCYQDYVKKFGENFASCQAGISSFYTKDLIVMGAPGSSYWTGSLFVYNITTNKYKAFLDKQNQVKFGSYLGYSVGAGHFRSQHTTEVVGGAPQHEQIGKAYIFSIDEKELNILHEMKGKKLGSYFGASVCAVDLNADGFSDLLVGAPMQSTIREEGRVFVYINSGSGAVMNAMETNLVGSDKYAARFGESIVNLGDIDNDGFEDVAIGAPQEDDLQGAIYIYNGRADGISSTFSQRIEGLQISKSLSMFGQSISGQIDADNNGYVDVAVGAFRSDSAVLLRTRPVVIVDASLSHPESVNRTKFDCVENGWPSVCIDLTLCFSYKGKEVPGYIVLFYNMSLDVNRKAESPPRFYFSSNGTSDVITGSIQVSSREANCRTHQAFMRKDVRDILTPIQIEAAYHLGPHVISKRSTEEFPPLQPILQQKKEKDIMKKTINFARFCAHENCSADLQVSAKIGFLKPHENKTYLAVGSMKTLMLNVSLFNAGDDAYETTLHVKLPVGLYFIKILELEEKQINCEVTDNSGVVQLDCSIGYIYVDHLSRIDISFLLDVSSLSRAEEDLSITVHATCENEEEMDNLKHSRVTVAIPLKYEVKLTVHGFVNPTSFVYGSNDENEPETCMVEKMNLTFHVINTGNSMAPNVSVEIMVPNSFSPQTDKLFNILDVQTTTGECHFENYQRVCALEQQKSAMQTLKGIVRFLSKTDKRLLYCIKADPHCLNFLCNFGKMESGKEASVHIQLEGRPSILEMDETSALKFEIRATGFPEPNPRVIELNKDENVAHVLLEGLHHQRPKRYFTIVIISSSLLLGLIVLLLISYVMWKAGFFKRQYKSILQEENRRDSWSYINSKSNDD
Assay type: cell-based, MOLT-4
In the case of NC(=O)C1(NC(=O)[C@@H](CCCC(=O)O)NC(=O)[C@@H](CCCCNC(=O)/C=C/c2cccnc2)NC(=O)Cc2ccc(Nc3nc4ccccc4s3)cc2)CCCCC1, the IC50 is reported as 0.0525 nM. Compound NC(=O)C1(NC(=O)[C@H](CCCC(=O)O)NC(=O)[C@H](CCCCNC(=O)/C=C/c2cccnc2)NC(=O)Cc2ccc(Nc3nc4ccccc4[nH]3)cc2)CCCCC1 has an IC50 of 0.305 nM. NC(=O)C1(NC(=O)[C@@H](CCCC(=O)O)NC(=O)[C@@H](CCCCNC(=O)/C=C/c2cccnc2)NC(=O)CCc2ccc(Nc3nc4cc(Br)ccc4[nH]3)cc2)CCCCC1 was tested, and the IC50 was 378 nM. NC(=O)C1(NC(=O)[C@@H](CCCC(=O)O)NC(=O)[C@@H](CCCCNC(=O)/C=C/c2cccnc2)NC(=O)c2ccc(Nc3nc4ccccc4s3)cc2)CCCCC1 was tested, and the IC50 was 346 nM.
